Usually MIC stands for the lowest concentration that inhibits growth of the organism.

We go through eight molecules from patent US9487545B2, “Fused ring-containing oxazolidinones antibiotics” (Xuanzhu Pharma Co., Ltd., priority 2011, dated 2016).

What all share (format): cell-based
The subject of one assay is streptococcus pneumoniae. Put plainly: In vitro antibacterial activity, standard agar dilution method, Streptococcus pneumoniae. The conditions noted are these: clinically separated strains. The source says: (§1) Strains for test: all the clinically separated strains below were purchased from public facilities.
(§2) Methicillin-resistant Staphylococcus aureus (MRSA), methicillin-resistant Staphylococcus epidermidis (MRSE), methicillin-sensitive Staphylococcus aureus (MSSA), methicillin-sensitive Staphylococcus epidermidis (MSSE), Enterococcus faecalis (efa), Enterococcus faecium (efm), streptococcus pneumoniae. Obtained from: Qianfoshan Hospital, First People's Hospital of Yunnan Province, Renji Hospital of Shanghai, People's Hospital of Jilin Province, Southwest Hospital.
(§3) some compounds of the present invention (chemical names and preparation methods thereof are as described in Preparation Examples of the compounds); linezolid (commercially available) and compound 38 (prepared following the process of Patent US2011098471).
(§4) standard agar dilution method, reference was made to National Committee for Clinical Laboratory Standards. 2006. Methods for Dilution Antimicrobial Susceptibility Tests for Bacteria That Grow Aerobically, Approved Standard Seventh Edition M7-A7.

Assay [1] has as its system Methicillin-resistant Staphylococcus aureus (MRSA). The assay is described as follows: In vitro antibacterial activity, standard agar dilution method, MRSA. The conditions noted are these: clinically separated strains, read-out: Antibiotic Activity MIC MRSA.
Description: as §1, §2, §3, §4
(In agar dilution the substance is mixed into plates at graded concentrations.)

Assay [2] concerns methicillin-sensitive Staphylococcus aureus (MSSA). Put plainly: In vitro antibacterial activity, standard agar dilution method, MSSA. Conditions: clinically separated strains, read-out: Antibiotic Activity MIC MSSA.
Description: as §1, §2, §3, §4

For assay [3], the system named is Enterococcus faecium (efm). The assay is described as follows: In vitro antibacterial activity, standard agar dilution method, efm. Conditions: clinically separated strains, read-out: Antibiotic Activity MIC efm.
Description: as §1, §2, §3, §4

In assay [4] the test system is methicillin-sensitive Staphylococcus epidermidis (MSSE). Put plainly: In vitro antibacterial activity, standard agar dilution method, MSSE. Conditions: clinically separated strains, read-out: Antibiotic Activity MIC MSSE.
Description: as §1, §2, §3, §4

The subject of assay [5] is methicillin-resistant Staphylococcus epidermidis (MRSE). Put plainly: In vitro antibacterial activity, standard agar dilution method, MRSE. The conditions noted are these: clinically separated strains, read-out: Antibiotic Activity MIC MRSE.
Description: as §1, §2, §3, §4

Assay [6] has as its system Enterococcus faecalis (efa). The assay is described as follows: In vitro antibacterial activity, standard agar dilution method, efa. Conditions: clinically separated strains, read-out: Antibiotic Activity MIC efa.
Description: as §1, §2, §3, §4

Converted amounts (≈) assume the structure as drawn.

For `Cn1nnnc1N1Cc2ccc(-c3ccc(N4C[C@H](CO)OC4=O)cc3F)cc2C1` [Compound 19], the “Antibiotic Activity MIC Streptococcus pneumoniae” value in the assay on streptococcus pneumoniae amounted to 1 µg/mL. Moreover, the MIC in assay [1] was determined as 1 µg/mL (≈ 2.44 µM); in assay [2] it was 1 µg/mL (≈ 2.44 µM); in assay [3], 2 µg/mL (≈ 4.87 µM); in assay [4], 0.5 µg/mL (≈ 1.22 µM); in assay [5] it was 1 µg/mL (≈ 2.44 µM); in assay [6], 2 µg/mL (≈ 4.87 µM).
`O=C1O[C@@H](CO)CN1c1ccc(-c2ccc3c(c2)CN(c2ccn[nH]2)C3)c(F)c1` [Compound 20]: the minimum inhibitory concentration (MIC) came out at 2 µg/mL (≈ 5.07 µM) in assay [1]; 1 µg/mL (≈ 2.54 µM) in assay [2]; 8 µg/mL (≈ 20.3 µM) in assay [3]; 0.5 µg/mL (≈ 1.27 µM) in assay [4]; 0.5 µg/mL (≈ 1.27 µM) in assay [5]; 8 µg/mL (≈ 20.3 µM) in assay [6].
As for `CC(=O)NC[C@H]1CN(c2ccc(N3CCOCC3)c(F)c2)C(=O)O1` [Linezolid, reference compound], the “Antibiotic Activity MIC Streptococcus pneumoniae” value in the assay on streptococcus pneumoniae came out at 2 µg/mL. For the same molecule, the MIC in assay [1] was determined as 2 µg/mL (≈ 5.93 µM); in assay [2] it was 2 µg/mL (≈ 5.93 µM); in assay [3], 2 µg/mL (≈ 5.93 µM); in assay [4] it was 2 µg/mL (≈ 5.93 µM); in assay [5], 1 µg/mL (≈ 2.96 µM); in assay [6] it was 2 µg/mL (≈ 5.93 µM).
As to `CC(=O)NC[C@H]1CN(c2ccc(-c3ccc4c(c3)CN(c3nnn(C)n3)C4)c(F)c2)C(=O)O1` [Compound 2, (S)—N-((3-(3-fluoro-4-(2-(2-methyl-2H-tetrazol-5-yl)isoindolin-5-yl)phenyl)-2-oxo-oxazolidin-5-yl)methyl)acetamide], in the assay on streptococcus pneumoniae, the “Antibiotic Activity MIC Streptococcus pneumoniae” value came to 0.5 µg/mL. Also, the MIC in assay [1] is 0.25 µg/mL (≈ 0.554 µM); in assay [2] it was 0.5 µg/mL (≈ 1.11 µM); in assay [3], 0.5 µg/mL (≈ 1.11 µM); in assay [4], 0.5 µg/mL (≈ 1.11 µM); in assay [5] it was 0.25 µg/mL (≈ 0.554 µM); in assay [6], 0.5 µg/mL (≈ 1.11 µM).
Regarding `CC(=O)NC[C@H]1CN(c2ccc(-c3ccc4nc(-c5nnn(C)n5)cn4c3)c(F)c2)C(=O)O1` [Compound 38, reference compound], the “Antibiotic Activity MIC Streptococcus pneumoniae” value in the assay on streptococcus pneumoniae stood at 0.5 µg/mL. In addition, the MIC in assay [1] came to 0.5 µg/mL (≈ 1.11 µM); in assay [2], 0.5 µg/mL (≈ 1.11 µM); in assay [3], 0.5 µg/mL (≈ 1.11 µM); in assay [4], 0.5 µg/mL (≈ 1.11 µM); in assay [5] it was 0.25 µg/mL (≈ 0.555 µM); in assay [6], 0.25 µg/mL (≈ 0.555 µM).
Consider `CC(=O)NC[C@H]1CN(c2ccc(-c3ccc4c(c3)CN(c3cnn[nH]3)C4)c(F)c2)C(=O)O1` [Compound 4, (S)—N-((3-(4-(2-(1H-1,2,3-triazol-5-yl)isoindolin-5-yl)-3-fluorophenyl)-2-oxo-oxazolidin-5-yl)methyl)acetamide], for which the “Antibiotic Activity MIC Streptococcus pneumoniae” value in the assay on streptococcus pneumoniae came to 0.5 µg/mL. The minimum inhibitory concentration (MIC) in assay [1] turned out to be 0.25 µg/mL (≈ 0.573 µM); in assay [2], 0.25 µg/mL (≈ 0.573 µM); in assay [3], 0.25 µg/mL (≈ 0.573 µM); in assay [4], 0.125 µg/mL (≈ 0.286 µM); in assay [5] it was 0.25 µg/mL (≈ 0.573 µM); in assay [6] it was 0.25 µg/mL (≈ 0.573 µM).
As to `O=C1O[C@@H](CO)CN1c1ccc(-c2ccc3c(c2)CN(c2cnn[nH]2)C3)c(F)c1` [Compound 3, (R)-3-(4-(2-(1H-1,2,3-triazol-5-yl)isoindolin-5-yl)-3-fluorophenyl)-5-(hydroxylmethyl)oxazolidin-2-one], in the assay with streptococcus pneumoniae, the “Antibiotic Activity MIC Streptococcus pneumoniae” value turned out to be 0.5 µg/mL. Also, the minimum inhibitory concentration (MIC) turned out to be 0.5 µg/mL (≈ 1.26 µM) in assay [1]; 0.5 µg/mL (≈ 1.26 µM) in assay [2]; 0.5 µg/mL (≈ 1.26 µM) in assay [3]; 0.125 µg/mL (≈ 0.316 µM) in assay [4]; 0.25 µg/mL (≈ 0.632 µM) in assay [5]; 0.5 µg/mL (≈ 1.26 µM) in assay [6].
With `Cn1nnc(N2Cc3ccc(-c4ccc(N5C[C@H](CO)OC5=O)cc4F)cc3C2)n1` [Compound 1, (R)-3-(3-fluoro-4-(2-(2-methyl-2H-tetrazol-5-yl)isoindolin-5-yl)phenyl)-5-(hydroxylmethyl)oxazolidin-2-one], the “Antibiotic Activity MIC Streptococcus pneumoniae” value in the assay on streptococcus pneumoniae worked out at 0.25 µg/mL. The MIC was 1 µg/mL (≈ 2.44 µM) in assay [1]; 1 µg/mL (≈ 2.44 µM) in assay [2]; 0.5 µg/mL (≈ 1.22 µM) in assay [3]; 0.5 µg/mL (≈ 1.22 µM) in assay [4]; 0.5 µg/mL (≈ 1.22 µM) in assay [5]; 1 µg/mL (≈ 2.44 µM) in assay [6].
